According to patent US20250179047A1, “5-[7-(3,4-DIHYDRO-1H-ISOQUINOLINE-2-CARBONYL)-1,2,3,4 TETRAHYDROISOQUINOLIN-6-YL]-1H-PYRROLE-3-CARBOXAMIDE DERIVATIVES, PHARMACEUTICAL COMPOSITIONS CONTAINING THEM AND THEIR USES AS PRO-APOPTOTIC AGENTS” (LES LABORATOIRES SERVIER, priority 2022, published 2025):

Key:
BCL2 WT = BCL2 WT (Homo sapiens (Human), UniProt P10415); experiment: TR-FRET competitive binding assay, BCL2 WT; details: Ki determined from IC50, read-out: TR_FRET EKI_Bcl2 WT
Method in brief: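 Ki derived from IC50 (11-point dilution, 520/495 nm emission ratio) for displacing a fluorescein-labelled PUMA peptide (2 or 20 nM). Target was 0.5 nM E. coli-expressed Halo-tagged BCL2 (1-207) or BCLXL (2-196), terbium-labelled on Halo. Incubation 2 h at 23°C in pH 7.5 Hepes with 150 mM NaCl and 5% DMSO.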

KMS12PE Bcl2 F104I = experiment: In vitro cytotoxicity CellTiterGlo 72 h, KMS12PE Bcl2 F104I; format: cell-based; details: Homo sapiens, KMS-12-PE, read-out: C50 nM, KMS12PE Bcl2 F104I
Procedure: KMS-12-PE (ACC 606) were purchased from the Leibniz-Institute DSMZ (Braunschweig, Germany) and were grown at 37° C. in a humidified atmosphere with 5% CO2 in media recommended by the suppliers. Lentiviral particles containing Bcl-2 wild type (also named “Bcl2 WT”), Bcl-2 mutated on G101V (also named “Bcl2 G101V”), Bcl-2 mutated on D103Y (also named “Bcl2 D103Y”), Bcl-2 mutated on D103V (also named “Bcl2 D103V”), Bcl-2 mutated on D103E (also named “Bcl2 D103E”), Bcl-2 mutated on F104I (also named “Bcl2 F104I”), Bcl-2 mutated on F104L (also named “Bcl2 F104L”), Bcl-2 mutated on D111A (also named “Bcl2 D111A”), Bcl-2 mutated on A113G (also named “Bcl2 A113G”), Bcl-2 mutated on R129L (also named “Bcl2 R129L”), Bcl-2 mutated on V156D (also named “Bcl2 V156D”) were cloned into pcLV-CMV-DEST-IRES-TagRFP. Lentiviral particles (1×10^6) were mixed with Polybrene at 8 μg/ml and transduced by spinoculation for 1 h at 32° C. and incubated overnight. After 8 days, TagRFP positive-cells were sorted by FACS. BCL2 expression was monitored by immunoblotting using anti-Flag and anti-BCL2 antibodies. Cells were seeded into 96-wells plates and treated with 1:3.16 serial dilution of compounds (9 different concentrations). Cell viability was assessed using CellTiterGlo reagent following treatment for 72 h. Results were normalized to the viability of cells without compounds (control wells). The C50 values were calculated using nonlinear regression algorithms in XCell software.

KMS-12-PE Bcl-2 G101V = experiment: In vitro cytotoxicity CellTiter-Glo 48 h, KMS-12-PE Bcl-2 G101V; format: cell-based; details: for Ratio (G101V/WT): C50 KMS-12-PE Bcl-2 G101V over C50 KMS-12-PE Bcl-2 WT; for IC50: 48 h, CellTiter-Glo, C50 = concentration needed to reach 50% of the cellular viability
Method in brief: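 KMS-12-PE myeloma cells lentivirally transduced with Bcl-2 WT or G101V (TagRFP-sorted), exposed to compound 11-point dose-response for 48 h at 37 °C, 5% CO2. Viability read by CellTiter-Glo ATP luminescence; C50 is the concentration giving 50% cellular viability.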

BCL2 WT, sequence (P10415 other isoform, or with tags, fused parts or gaps): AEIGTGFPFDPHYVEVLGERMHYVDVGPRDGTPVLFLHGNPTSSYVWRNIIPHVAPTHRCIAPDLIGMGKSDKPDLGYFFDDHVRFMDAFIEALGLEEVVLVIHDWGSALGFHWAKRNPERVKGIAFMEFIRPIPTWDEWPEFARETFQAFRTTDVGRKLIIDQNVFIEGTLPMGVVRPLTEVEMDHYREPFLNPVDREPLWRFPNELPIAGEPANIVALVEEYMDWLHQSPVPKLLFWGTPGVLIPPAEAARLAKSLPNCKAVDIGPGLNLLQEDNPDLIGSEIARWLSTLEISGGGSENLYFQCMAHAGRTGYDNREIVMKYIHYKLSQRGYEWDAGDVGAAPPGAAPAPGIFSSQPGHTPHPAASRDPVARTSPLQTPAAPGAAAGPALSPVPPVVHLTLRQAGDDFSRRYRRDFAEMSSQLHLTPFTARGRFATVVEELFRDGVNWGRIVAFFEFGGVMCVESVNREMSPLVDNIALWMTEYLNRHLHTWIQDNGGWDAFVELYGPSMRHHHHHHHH

Structure (SMILES)	Ki (BCL2 WT)	IC50 (KMS12PE Bcl2 F104I)	Ratio (G101V/WT) (KMS-12-PE Bcl-2 G101V)	IC50 (KMS-12-PE Bcl-2 G101V; Homo sapiens, KMS-12-PE)	IC50 (KMS-12-PE Bcl-2 G101V)
Cc1c(N(C(=O)c2cc(-c3cc4c(cc3C(=O)N3Cc5ccccc5C[C@H]3CN3CCC[C@H](C)C3)CN(C(=O)Cc3ccc(OCCN5CCOCC5)cc3F)CC4)n(C)c2C)c2ccc(O)cc2)cc(C#N)n1C [Example 107]	0.09 nM	23.6 nM	4.47	0.0166 µM	
Cc1c(N(C(=O)c2cc(-c3cc4c(cc3C(=O)N3Cc5ccccc5C[C@H]3C)CN(C(=O)Cc3ccc(OCCN5CCSCC5)cc3)CC4)n(C)c2C)c2ccc(O)cc2)cc(C#N)n1C [Example 55, N-(5-cyano-1,2-dimethyl-1H-pyrrol-3-yl)-N-(4-hydroxyphenyl)-1,2-dimethyl-5-{7-[(3R)-3-methyl-1,2,3,4-tetrahydroisoquinoline-2-carbonyl]-2-(2-{4-[2-(thiomorpholin-4-yl)ethoxy]phenyl}acetyl)-1,2,3,4-tetrahydroisoquinolin-6-yl}-1H-pyrrole-3-carboxamide]	0.1 nM	57.8 nM	4.22	0.026 µM	
Cc1c(N(C(=O)c2cc(-c3cc4c(cc3C(=O)N3Cc5ccccc5C[C@H]3C)CN(C(=O)Cc3ccc(OCCN5CCOCC5)cc3)CC4)n(C)c2C)c2ccc(O)cc2)cc(C#N)n1C [Example 21, N-(5-cyano-1,2-dimethyl-1H-pyrrol-3-yl)-N-(4-hydroxyphenyl)-1,2-dimethyl-5-{7-[(3R)-3-methyl-1,2,3,4-tetrahydroisoquinoline-2-carbonyl]-2-(2-{4-[2-(morpholin-4-yl)ethoxy]phenyl}acetyl)-1,2,3,4-tetrahydroisoquinolin-6-yl}-1H-pyrrole-3-carboxamide]	0.11 nM	45 nM	4.02	0.023 µM	
COC[C@@H]1Cc2ccccc2CN1C(=O)c1cc2c(cc1-c1cc(C(=O)N(c3ccc(O)cc3)c3cc(C#N)n(C)c3C)c(C)n1C)CCN(C(=O)Cc1ccc(OCCC3CCOCC3)cc1F)C2 [Example 52, N-(5-cyano-1,2-dimethylpyrrol-3-yl)-5-[2-(2-{2-fluoro-4-[2-(oxan-4-yl)ethoxy]phenyl}acetyl)-7-{[(3S)-3-(methoxymethyl)-3,4-dihydro-1H-isoquinolin-2-yl]carbonyl}-3,4-dihydro-1H-isoquinolin-6-yl]-N-(4-hydroxyphenyl)-1,2-dimethylpyrrole-3-carboxamide]	0.2 nM	11.1 nM	4.08	0.0139 µM	
Cc1c(N(C(=O)c2cc(-c3cc4c(cc3C(=O)N3Cc5ccccc5C[C@H]3CN3CCCCC3)CN(C(=O)Cc3ccc(OCCN5CCOCC5)cc3F)CC4)n(C)c2C)c2ccc(O)cc2)cc(C#N)n1C [Example 43, N-(5-cyano-1,2-dimethylpyrrol-3-yl)-5-[2-(2-{2-fluoro-4-[2-(morpholin-4-yl)ethoxy]phenyl}acetyl)-7-{[(3S)-3-(piperidin-1-ylmethyl)-3,4-dihydro-1H-isoquinolin-2-yl]carbonyl}-3,4-dihydro-1H-isoquinolin-6-yl]-N-(4-hydroxyphenyl)-1,2-dimethylpyrrole-3-carboxamide]	0.04 nM	29.3 nM	4.82		0.0232 µM
Cc1c(N(C(=O)c2cc(-c3cc4c(cc3C(=O)N3Cc5ccccc5C[C@H]3CN3CCCCC3)CN(C(=O)Cc3ccc(OCCC5CCOCC5)cc3)CC4)n(C)c2C)c2ccc(O)cc2)cc(C#N)n1C [Example 66, N-(5-cyano-1,2-dimethylpyrrol-3-yl)-N-(4-hydroxyphenyl)-1,2-dimethyl-5-[2-(2-{4-[2-(oxan-4-yl)ethoxy]phenyl}acetyl)-7-{[(3S)-3-(piperidin-1-ylmethyl)-3,4-dihydro-1H-isoquinolin-2-yl]carbonyl}-3,4-dihydro-1H-isoquinolin-6-yl]pyrrole-3-carboxamide]	0.08 nM	65.2 nM	5.46	0.033 µM	

More lines, main results first:

Ki (BCL2 WT)	Structure (SMILES)	IC50 (KMS12PE Bcl2 F104I)	Ratio (G101V/WT) (KMS-12-PE Bcl-2 G101V)	IC50 (KMS-12-PE Bcl-2 G101V; Homo sapiens, KMS-12-PE)	IC50 (KMS-12-PE Bcl-2 G101V)
0.8 nM	Cc1c(N(C(=O)c2cc(-c3cc4c(cc3C(=O)N3Cc5ccccc5C[C@H]3C)CN(C(=O)Cc3ccc(OCCC5CCOCC5)cc3)CC4)n(C)c2C)c2ccc(O)cc2)cc(C#N)n1C [Example 27, N-(5-cyano-1,2-dimethyl-1H-pyrrol-3-yl)-N-(4-hydroxyphenyl)-1,2-dimethyl-5-{7-[(3R)-3-methyl-1,2,3,4-tetrahydroisoquinoline-2-carbonyl]-2-(2-{4-[2-(oxan-4-yl)ethoxy]phenyl}acetyl)-1,2,3,4-tetrahydroisoquinolin-6-yl}-1H-pyrrole-3-carboxamide]	29.1 nM	4.23	0.0143 µM	
0.08 nM	Cc1c(N(C(=O)c2cc(-c3cc4c(cc3C(=O)N3Cc5ccccc5C[C@H]3C)CN(C(=O)Cc3ccc(N5CCN6CCOC[C@@H]6C5)cc3F)CC4)n(C)c2C)c2ccc(O)cc2)cc(C#N)n1C [Example 45, 5-[2-(2-{4-[(9aS)-octahydropyrazino[2,1-c][1,4]oxazin-8-yl]-2-fluorophenyl}acetyl)-7-[(3R)-3-methyl-1,2,3,4-tetrahydroisoquinoline-2-carbonyl]-1,2,3,4-tetrahydroisoquinolin-6-yl]-N-(5-cyano-1,2-dimethyl-1H-pyrrol-3-yl)-N-(4-hydroxyphenyl)-1,2-dimethyl-1H-pyrrole-3-carboxamide]	114 nM	6.47	0.0324 µM	
0.07 nM	Cc1c(N(C(=O)c2cc(-c3cc4c(cc3C(=O)N3Cc5ccccc5C[C@H]3C)CN(C(=O)Cc3ccc(OCCN5CCC(F)CC5)cc3)CC4)n(C)c2C)c2ccc(O)cc2)cc(C#N)n1C [Example 53, N-(5-cyano-1,2-dimethyl-1H-pyrrol-3-yl)-5-[2-(2-{4-[2-(4-fluoropiperidin-1-yl)ethoxy]phenyl}acetyl)-7-[(3R)-3-methyl-1,2,3,4-tetrahydroisoquinoline-2-carbonyl]-1,2,3,4-tetrahydroisoquinolin-6-yl]-N-(4-hydroxyphenyl)-1,2-dimethyl-1H-pyrrole-3-carboxamide]	72.7 nM	5.12	0.0337 µM	
0.22 nM	Cc1c(N(C(=O)c2cc(-c3cc4c(cc3C(=O)N3Cc5ccccc5C[C@H]3C)CN(C(=O)Cc3ccc(CCN5CCC(F)(F)CC5)cc3)CC4)n(C)c2C)c2ccc(O)cc2)cc(C#N)n1C [Example 51, N-(5-cyano-1,2-dimethylpyrrol-3-yl)-5-[2-(2-{4-[2-(4,4-difluoropiperidin-1-yl)ethyl]phenyl}acetyl)-7-{[(3R)-3-methyl-3,4-dihydro-1H-isoquinolin-2-yl]carbonyl}-3,4-dihydro-1H-isoquinolin-6-yl]-N-(4-hydroxyphenyl)-1,2-dimethylpyrrole-3-carboxamide]	321 nM	5.07	0.0362 µM	
0.05 nM	Cc1c(C(=O)N(c2ccc(O)cc2)c2cc(C#N)n(C(F)F)c2C)cc(-c2cc3c(cc2C(=O)N2Cc4ccccc4C[C@H]2CN2CCCCC2)CN(C(=O)Cc2ccc(OCCN4CCOCC4)cc2F)CC3)n1C [Example 78, N-[5-cyano-1-(difluoromethyl)-2-methylpyrrol-3-yl]-5-[2-(2-{2-fluoro-4-[2-(morpholin-4-yl)ethoxy]phenyl}acetyl)-7-{[(3S)-3-(piperidin-1-ylmethyl)-3,4-dihydro-1H-isoquinolin-2-yl]carbonyl}-3,4-dihydro-1H-isoquinolin-6-yl]-N-(4-hydroxyphenyl)-1,2-dimethylpyrrole-3-carboxamide]	21.8 nM	5.98	0.0299 µM	
0.06 nM	Cc1c(C(=O)N(c2ccc(O)cc2)c2cc(C#N)n(C(F)F)c2C)cc(-c2cc3c(cc2C(=O)N2Cc4ccccc4C[C@H]2CN2CCCCC2)CN(C(=O)Cc2ccc(OCCN4CCOCC4)cc2)CC3)n1C [Example 77]	156 nM	5.1	0.0487 µM	
